Laboratory results reported in patent publication US5700639A, “Method for the detection of metabolically labelled DNA” (Boehringer Mannheim GmbH, priority 1993, dated 1997).

Tests used:
HL60 cells [1] = experiment: Detection of metabolically labelled DNA fragments in apoptotic cells (3 hours incubation); assay type: cell-based; conditions: 200 ng/ml camptothecin, 37° C.
Protocol: (§1) The cells to be examined (e.g. HL60 cells, ATCC CCL 240) are firstly metabolically labelled by incubation with 0.01 mmol/l bromodeoxyuridine for 18 hours at 37° C. After removing the excess bromodeoxyuridine that is not incorporated into DNA by washing with culture medium, the cells (200 μl in each case, see Table 1 for cell number) are incubated for 4 hours at 37° C. with 2 μg/ml camptothecin (Sigma, Munich) in a microtitre plate. Afterwards 20 μl 10-fold concentrated lysis buffer (PBS/50 mmol/l EDTA/2 % Tween 20) is added to each preparation for the lysis, the microtitre plate is centrifuged and 100 μl supernatant is taken from each well for the test (PBS=137 mmol/l NaCl; 2.7 mmol/l KCl; 8 mmol/l Na2 HPO4 and 1.5 mmol/l KH2 PO4).
In order to detect the metabolically labelled DNA, a further microtitre plate is coated with an antibody against DNA (5 μg/ml, Boehringer Mannheim GmbH, Ident. No. 1525760) in 100 mmol/l NaCO3 buffer pH 9.6. Subsequently the metabolically labelled DNA is bound to the wall antibody by addition of 100 μl supernatant (see above) per well and incubation for 90 minutes at room temperature. After washing with PBS, the remaining liquid is removed from the wells of the microtitre plate by for example knocking. […]

HL60 cells [2] = experiment: Detection of metabolically labelled DNA fragments in the cytoplasm of apoptotic cells (4 hours incubation); assay type: cell-based; conditions: for A (405 nm), metabolically labelled DNA fragments in the cytoplasm: 37° C.
Protocol: as §1
In order to detect the metabolically labelled DNA, a further microtitre plate is coated with an antibody against DNA (5 μg/ml, Boehringer Mannheim GmbH, Ident. No. 1525760) in 100 mmol/l NaCO3 buffer pH 9.6. Subsequently the metabolically labelled DNA is bound to the wall antibody by addition of 100 μl supernatant (see above) per well and incubation for 90 minutes at room temperature. After washing with PBS, the remaining liquid is removed from the wells of the microtitre plate by for example knocking. Afterwards the bound double-stranded DNA is denatured or partially degraded by microwave treatment (5 min. 650 watts, AEG Micromat 275Z) or alternatively by addition of 100 μl (corresponding to 1 unit per well of the microtitre plate) exonuclease III (Boehringer Mannheim GmbH, Catalogue No. 779717). The preparation in which the DNA has been denatured by microwave treatment is subsequently cooled for 10 minutes at 8° C. in a refrigerator. The preparation treated with exonuclease III is subsequently washed three times with PBS.
HL60 cells (ATCC CCL 240) were firstly metabolically labelled with bromodeoxyuridine as stated in example 1. After washing out excess bromodeoxyuridine, the cells are incubated in a microtitre plate at 37° C. for 3 or 4 hours with various concentrations of camptothecin (5000 to 0 ng/ml). Subsequently the microtitre plate is centrifuged, an aliquot of the cell culture supernatant (100 μl/well) is taken for the detection of metabolically labelled DNA in the cell culture supernatant according to example 2 and the cells remaining in the microtitre plate are lysed by addition of 100 μl/well 2-fold concentrated lysis buffer (PBS/10 mmol/l EDTA/0.4% Tween 20). The detection of the metabolically labelled DNA in the lysate obtained in this way is then carried out as described in example 1.

## CC[C@@]1(O)C(=O)OCc2c1cc1n(c2=O)Cc2cc3ccccc3nc2-1 [camptothecin]
HL60 cells [1]; cell culture supernatant (according to example 2)
  A (405 nm), metabolically labelled DNA, cell culture supernatant: 0.020
HL60 cells [1]; cytoplasm (lysate after detergent treatment)
  A (405 nm), metabolically labelled DNA, cytoplasm (lysate after detergent treatment): 0.770
HL60 cells [2]; 1.6 ng/ml camptothecin
  A (405 nm), metabolically labelled DNA fragments in the cytoplasm: 0.295
HL60 cells [2]; 8 ng/ml camptothecin
  A (405 nm), metabolically labelled DNA fragments in the cytoplasm: 0.342
HL60 cells [2]; 40 ng/ml camptothecin
  A (405 nm), metabolically labelled DNA fragments in the cytoplasm: 0.625
HL60 cells [2]; 200 ng/ml camptothecin
  A (405 nm), metabolically labelled DNA fragments in the cytoplasm: 1.006
HL60 cells [2]; 1000 ng/ml camptothecin
  A (405 nm), metabolically labelled DNA fragments in the cytoplasm: 1.457
HL60 cells [2]; 5000 ng/ml camptothecin
  A (405 nm), metabolically labelled DNA fragments in the cytoplasm: 1.677
HL60 cells [2]; camptothecin 5000 to 0 ng/ml
  amount of cytoplasmic, metabolically labelled DNA fragments (dose dependence): correlates with the amount of camptothecin
